Laboratory results: patent US20080108645A1, “Dihydrotetrabenazines And Pharmaceutical Compositions Containing Them” (CAMBRIDGE LABORATORIES, (IRELAND), LTD., priority 2004, published 2008)
Entries after “also recorded” stand apart in the source; their conditions may differ.

Tests used:
VMAT2 = VMAT2 (Homo sapiens, UniProt Q05940); conditions: Erickson et al. (1996); cited from earlier work
Male Sprague-Dawley rats = assay: Spontaneous locomotor activity in rats (sedative properties); assay type: in vivo, rat
Procedure: A study was carried out in rats to determine whether the dihydrotetrabenazine isomers of the invention have sedative properties. The effects of the isomers on spontaneous locomotor activity in rats were compared with the effects produced by tetrabenazine and haloperidol using the methods set out below.
Male Sprague-Dawley rats, (Charles River Laboratories, Saint-Germain/L'Arbresle, France), weighing 200-250 g at the beginning of the study, were used for the studies. The rats were housed, 2 or 3 per cage, in Makrolon type III cages, in a room set up with the following environmental conditions: temperature: 20±2° C., humidity: minimum 45%, air changes: >12 per hour, light/dark cycle of 12 h/12 h [on at 7:00 a.m.]. The rats were allowed to acclimatize to their conditions for at least five days before commencement of the study. The rats received food (Dietex, Vigny, France, ref. 811002) and water (tap water in water bottle) ad libitum.
Solutions of each test compound in corn oil were freshly prepared on the day of the experiment. Haloperidol was prepared in hydroxyethylcellulose, 0.5% in deionized water. Either the vehicle or the test compounds were administered as a single dose (0.3, 1, 3 and 10 mg/kg, 2 mL/kg i.p.). The reference compound haloperidol (1 mg/kg) was administered i.p. (2 mL/kg).
The animals were placed in plexiglass cages under a video camera in a room with low light intensity (maximum 50 lux). At forty five minutes and 3 hours after administration, locomotor activity was determined during 20 minute periods using a video image analyzer (Videotrack, View Point, France). Locomotor activity was recorded in the reference group (haloperidol) at 1 hour after administration. The number and duration of ambulatory movements and duration of inactivity was measured. At the end of the locomotor activity measurement (45 minutes and 3 hours), palpebral closure and arousal were be scored as follows in the plexiglass cage:
The number of occurrences and duration (in seconds) of ambulatory (large) movements and the duration of periods of inactivity (seconds) was determined during two 20 minute periods (45 minutes and 3 hours after administration) using a video image analyzer (Videotrack, ViewPoint, Lyon, France). Image tracking was performed using a video camera placed above the plexiglass cage, recording overall locomotor activity. Images recorded with the video camera were digitalized and displacement of the centre of gravity of the digital image spots was tracked and analyzed using the following method: the speed of displacement of the centre of gravity of the spot was measured and two threshold values were set to define the type of movement: threshold 1 (high speed) and threshold 2 (low speed). When the animal moved and the speed of displacement of the centre of gravity of the spot was above threshold 1, the movement was considered as an ambulatory movement.
The results were expressed as the means±SEMs of the 12 individual values. Statistical analyses were carried out using ANOVA (one way) and Dunnett's t-test and with the non parametric test of Kruskal-Wallis followed by a Mann & Whitney U-test for the sedation cotation. A p value of p<0.05 was taken as indicating significance.

[1] = 0.3 mg/kg i.p., 45 minutes after administration
[2] = 0.3 mg/kg i.p., 3 hours after administration
[3] = 1 mg/kg i.p., 45 minutes after administration
[4] = 1 mg/kg i.p., 3 hours after administration
[5] = 3 mg/kg i.p., 45 minutes after administration
[6] = 3 mg/kg i.p., 3 hours after administration
[7] = 10 mg/kg i.p., 45 minutes after administration
[8] = 10 mg/kg i.p., 3 hours after administration

Sequence of VMAT2 (Q05940 whole entry): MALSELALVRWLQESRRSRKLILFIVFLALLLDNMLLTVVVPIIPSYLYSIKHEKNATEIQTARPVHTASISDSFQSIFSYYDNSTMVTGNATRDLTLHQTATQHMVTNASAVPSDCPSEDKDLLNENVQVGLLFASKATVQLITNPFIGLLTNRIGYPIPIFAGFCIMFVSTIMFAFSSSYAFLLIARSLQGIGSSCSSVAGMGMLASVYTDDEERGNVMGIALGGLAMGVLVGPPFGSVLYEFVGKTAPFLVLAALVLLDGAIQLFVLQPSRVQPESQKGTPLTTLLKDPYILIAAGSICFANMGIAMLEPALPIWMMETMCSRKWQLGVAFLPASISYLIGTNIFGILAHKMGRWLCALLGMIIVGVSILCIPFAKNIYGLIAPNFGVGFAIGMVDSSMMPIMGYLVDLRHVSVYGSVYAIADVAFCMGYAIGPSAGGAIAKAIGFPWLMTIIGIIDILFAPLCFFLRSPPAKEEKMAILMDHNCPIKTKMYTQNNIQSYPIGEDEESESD

In the case of `COc1cc2c(cc1OC)C1CC(=O)C(CC(C)C)CN1CC2` (racemic) [Tetrabenazine, 1,3,4,6,7,11b-hexahydro-9,10-dimethoxy-3-(2-methylpropyl)-2H-benzo(a)quinolizin-2-one], the “affinity for VMAT2 in comparison to VMAT1” value (VMAT2) is given as no less than 200 fold, the “Inactivity Duration” value (Male Sprague-Dawley rats; [1]) is given as 390.4 ± 37.4 s and the “Large movements Duration” value (Male Sprague-Dawley rats; [1]) is given as 66.8 ± 10.7 s. For the same molecule, the “Large movements Occurrence” value (Male Sprague-Dawley rats; [1]) was 253 ± 32, the “Inactivity Duration” value (Male Sprague-Dawley rats; [2]) was 545.9 ± 37.1 s and the “Large movements Duration” value (Male Sprague-Dawley rats; [2]) was 24.3 ± 4.2 s. The “Large movements Occurrence” value (Male Sprague-Dawley rats; [2]) was 96 ± 14, the “Inactivity Duration” value (Male Sprague-Dawley rats; [3]) was 456.5 ± 50.5 s and the “Large movements Duration” value (Male Sprague-Dawley rats; [3]) was 46.5 ± 8.6 s. For the same molecule, the “Large movements Occurrence” value (Male Sprague-Dawley rats; [3]) was 189 ± 32, the “Inactivity Duration” value (Male Sprague-Dawley rats; [4]) was 556.9 ± 31.1 s and the “Large movements Duration” value (Male Sprague-Dawley rats; [4]) was 21.5 ± 4.0 s. The “Large movements Occurrence” value (Male Sprague-Dawley rats; [4]) was 90 ± 16, the “Inactivity Duration” value (Male Sprague-Dawley rats; [5]) was 697.8 ± 39.7 s and the “Large movements Duration” value (Male Sprague-Dawley rats; [5]) was 8.7 ± 5.9 s. For the same molecule, the “Large movements Occurrence” value (Male Sprague-Dawley rats; [5]) was 38 ± 25, the “Inactivity Duration” value (Male Sprague-Dawley rats; [6]) was 729.9 ± 26.8 s and the “Large movements Duration” value (Male Sprague-Dawley rats; [6]) was 1.7 ± 0.9 s. The “Large movements Occurrence” value (Male Sprague-Dawley rats; [6]) was 9 ± 4, the “Inactivity Duration” value (Male Sprague-Dawley rats; [7]) was 723.1 ± 46.5 s and the “Large movements Duration” value (Male Sprague-Dawley rats; [7]) was 0.2 ± 0.2 s. The “Large movements Occurrence” value (Male Sprague-Dawley rats; [7]) was 1 ± 1, the “Inactivity Duration” value (Male Sprague-Dawley rats; [8]) was 762.1 ± 40.7 s and the “Large movements Duration” value (Male Sprague-Dawley rats; [8]) was 0.6 ± 0.3 s. For the same molecule, the “Large movements Occurrence” value (Male Sprague-Dawley rats; [8]) was 3 ± 1 and the “sedative effect (in words)” value (Male Sprague-Dawley rats; 0.3-10 mg/kg i.p., 45 minutes and 3 hours after administration) was “dose-dependent sedative effect; also recorded: dose related sedative effect”.
